Measured values as given in paper PMC3731320, “Identification of Benzimidazole Diamides as Selective Inhibitors of the Nucleotide-Binding Oligomerization Domain 2 (NOD2) Signaling Pathway” (PLoS ONE, 2013).

The compounds below were run on NOD2 (assay: MDP-stimulated IL-8 release in 293/hNOD2 cells (HTRF)). Details: Homo sapiens; MDP-stimulated IL-8 production assay in 293/hNOD2 cells; Figures 4 and 5; read-out: NOD2 IC50.
Format: cell-based, human
Method: After 24 hours the amount of IL-8 secreted into the medium was determined by homogeneous time resolved fluorescence (HTRF) assay by the direct addition of a 1:1 mix of europium cryptate and XL665-conjugated anti-IL-8 antibodies according to the manufacturer's instructions (Cisbio).

| IC50 [µM] | Compound |
| --- | --- |
| 0.8 ± 0.5 | CC(C)c1cccc(NC(=O)Cn2c(CCNC(=O)c3ccccc3)nc3ccccc32)c1 [Compound 3, N-(2-(1-(2-((3-isopropylphenyl)amino)-2-oxoethyl)-1H-benzo[d]imidazol-2-yl)ethyl)benzamide] |
| 1.3 ± 0.02 | O=C(Cn1c(CCNC(=O)c2ccccc2)nc2ccccc21)Nc1ccc2sccc2c1 [Compound 4, N-(2-(1-(2-(benzo[b]thiophen-5-ylamino)-2-oxoethyl)-1H-benzo[d]imidazol-2-yl)ethyl)benzamide] |
| 1.6 ± 1.3 | O=C(Cn1c(CCNC(=O)c2ccccc2)nc2ccccc21)Nc1ccc2ccccc2c1 [Compound 5, N-(2-(1-(2-(naphthalen-2-ylamino)-2-oxoethyl)-1H-benzo[d]imidazol-2-yl)ethyl)benzamide] |
| 2.8 ± 0.1 | Cc1ccc(NC(=O)Cn2c(CCNC(=O)c3ccccc3)nc3ccccc32)cc1C [Compound 6, N-(2-(1-(2-(3,4-dimethylphenylamino)-2-oxoethyl)-1H-benzo[d]imidazol-2-yl)ethyl)benzamide] |
| 3.3 ± 0.9 | O=C(Cn1c(CCNC(=O)c2ccccc2)nc2ccccc21)Nc1ccc2occc2c1 [Compound 7, N-(2-(1-(2-(benzofuran-5-ylamino)-2-oxoethyl)-1H-benzo[d]imidazol-2-yl)ethyl)benzamide] |
| 3.3 ± 2.1 | O=C(Cn1c(CCNC(=O)c2ccccc2)nc2ccccc21)Nc1ccc(Cl)c(Cl)c1 [Compound 8, N-(2-(1-(2-(3,4-dichlorophenylamino)-2-oxoethyl)-1H-benzo[d]imidazol-2-yl)ethyl)benzamide] |
| 35.2 ± 9.1 | O=C(Cn1c(CCNC(=O)c2ccccc2)nc2ccccc21)Nc1ccc2c(c1)C(O)CC2 (centres unmarked) [Compound 9, N-(2-(1-(2-((3-hydroxy-2,3-dihydro-1H-inden-5-yl)amino)-2-oxoethyl)-1H-benzo[d]imidazol-2-yl)ethyl)benzamide] |
| > 50 | O=C(Cn1c(CCNC(=O)c2ccccc2)nc2ccccc21)Nc1ccc2c(c1)CCN2 [Compound 10, N-(2-(1-(2-(indolin-5-ylamino)-2-oxoethyl)-1H-benzo[d]imidazol-2-yl)ethyl)benzamide] |
| > 50 | O=C(Cn1c(CCNC(=O)c2ccccc2)nc2ccccc21)Nc1ccc(OCc2ccccc2)cc1 [Compound 11, N-(2-(1-(2-((4-(benzyloxy)phenyl)amino)-2-oxoethyl)-1H-benzo[d]imidazol-2-yl)ethyl)benzamide] |
| > 50 | O=C(Cn1c(CCNC(=O)c2ccccc2)nc2ccccc21)Nc1ccc2c(c1)NCC2 [Compound 12, N-(2-(1-(2-(indolin-6-ylamino)-2-oxoethyl)-1H-benzo[d]imidazol-2-yl)ethyl)benzamide] |
| > 50 | O=C(Cn1c(CCNC(=O)c2ccccc2)nc2ccccc21)Nc1ccc(Oc2ccccc2)cc1 [Compound 13, N-(2-(1-(2-oxo-2-((4-phenoxyphenyl)amino)ethyl)-1H-benzo[d]imidazol-2-yl)ethyl)benzamide] |
| > 50 | O=C(Cn1c(CCNC(=O)c2ccccc2)nc2ccccc21)Nc1ccc2[nH]ccc2c1 [Compound 14, N-(2-(1-(2-(1H-indol-5-ylamino)-2-oxoethyl)-1H-benzo[d]imidazol-2-yl)ethyl)benzamide] |
| 3.4 ± 0.2 | O=C(Cn1c(CCNC(=O)c2cccc3ccccc23)nc2ccccc21)Nc1ccc2c(c1)CCC2 [Compound 15, N-(2-(1-(2-((2,3-dihydro-1H-inden-5-yl)amino)-2-oxoethyl)-1H-benzo[d]imidazol-2-yl)ethyl)-1-naphthamide] |
| 3.8 ± 1.4 | O=C(Cn1c(CCNC(=O)c2ccccc2Cl)nc2ccccc21)Nc1ccc2c(c1)CCC2 [Compound 16, 2-chloro-N-(2-(1-(2-((2,3-dihydro-1H-inden-5-yl)amino)-2-oxoethyl)-1H-benzo[d]imidazol-2-yl)ethyl)benzamide] |
| 4.7 ± 0.5 | Cc1ccccc1C(=O)NCCc1nc2ccccc2n1CC(=O)Nc1ccc2c(c1)CCC2 [Compound 17, N-(2-(1-(2-((2,3-dihydro-1H-inden-5-yl)amino)-2-oxoethyl)-1H-benzo[d]imidazol-2-yl)ethyl)-2-methylbenzamide] |
| > 50 | Cc1ccc(C(=O)NCCc2nc3ccccc3n2CC(=O)Nc2ccc3c(c2)CCC3)cc1 [Compound 18, N-(2-(1-(2-((2,3-dihydro-1H-inden-5-yl)amino)-2-oxoethyl)-1H-benzo[d]imidazol-2-yl)ethyl)-4-methylbenzamide] |
| > 50 | O=C(Cn1c(CCNC(=O)c2ccc(Cl)c(Cl)c2)nc2ccccc21)Nc1ccc2c(c1)CCC2 [Compound 19, 3,4-dichloro-N-(2-(1-(2-((2,3-dihydro-1H-inden-5-yl)amino)-2-oxoethyl)-1H-benzo[d]imidazol-2-yl)ethyl)benzamide] |

| IC50 [µM] | Compound |
| --- | --- |
| > 50 | O=C(Cn1c(CCNC(=O)c2cccc(C(F)(F)F)c2)nc2ccccc21)Nc1ccc2c(c1)CCC2 [Compound 20, N-(2-(1-(2-((2,3-dihydro-1H-inden-5-yl)amino)-2-oxoethyl)-1H-benzo[d]imidazol-2-yl)ethyl)-3-(trifluoromethyl)benzamide] |
| > 50 | Cc1cccc(C(=O)NCCc2nc3ccccc3n2CC(=O)Nc2ccc3c(c2)CCC3)c1 [Compound 21, N-(2-(1-(2-((2,3-dihydro-1H-inden-5-yl)amino)-2-oxoethyl)-1H-benzo[d]imidazol-2-yl)ethyl)-3-methylbenzamide] |
| > 50 | O=C(Cn1c(CCNC(=O)c2cccc(Cl)c2)nc2ccccc21)Nc1ccc2c(c1)CCC2 [Compound 22, 3-chloro-N-(2-(1-(2-((2,3-dihydro-1H-inden-5-yl)amino)-2-oxoethyl)-1H-benzo[d]imidazol-2-yl)ethyl)benzamide] |
| 1.3 ± 0.1 | O=C(Cn1c(CCNC(=O)c2ccccc2)nc2cc(Cl)ccc21)Nc1ccc2c(c1)CCC2 [Compound 23, N-(2-(5-chloro-1-(2-((2,3-dihydro-1H-inden-5-yl)amino)-2-oxoethyl) -1H-benzo[d]imidazol-2-yl)ethyl)benzamide] |
| 4.2 ± 0.1 | O=C(Cn1c(CCNC(=O)c2ccccc2)nc2ccc(Cl)cc21)Nc1ccc2c(c1)CCC2 [Compound 24, N-(2-(6-chloro-1-(2-((2,3-dihydro-1H-inden-5-yl)amino)-2-oxoethyl)-1H-benzo[d]imidazol-2-yl)ethyl)benzamide] |
| 4.6 ± 1.9 | Cc1ccc2c(c1)nc(CCNC(=O)c1ccccc1)n2CC(=O)Nc1ccc2c(c1)CCC2 [Compound 25, N-(2-(1-(2-((2,3-dihydro-1H-inden-5-yl)amino)-2-oxoethyl)-5-methyl-1H-benzo[d]imidazol-2-yl)ethyl)benzamide] |
| > 50 | COc1ccc2c(c1)nc(CCNC(=O)c1ccccc1)n2CC(=O)Nc1ccc2c(c1)CCC2 [Compound 26, N-(2-(1-(2-((2,3-dihydro-1H-inden-5-yl)amino)-2-oxoethyl)-5-methoxy-1H-benzo[d]imidazol-2-yl)ethyl)benzamide] |
| > 50 | COc1ccc2nc(CCNC(=O)c3ccccc3)n(CC(=O)Nc3ccc4c(c3)CCC4)c2c1 [Compound 27, N-(2-(1-(2-((2,3-dihydro-1H-inden-5-yl)amino)-2-oxoethyl)-6-methoxy-1H-benzo[d]imidazol-2-yl)ethyl)benzamide] |
| > 50 | Cc1cccc2c1nc(CCNC(=O)c1ccccc1)n2CC(=O)Nc1ccc2c(c1)CCC2 [Compound 28, N-(2-(1-(2-((2,3-dihydro-1H-inden-5-yl)amino)-2-oxoethyl)-4-methyl-1H-benzo[d]imidazol-2-yl)ethyl)benzamide] |
| 17 ± 2 | CN(CCc1nc2ccccc2n1CC(=O)N(C)c1ccc2c(c1)CCC2)C(=O)c1ccccc1 [Compound 30, N-(2-(1-(2-((2,3-dihydro-1H-inden-5-yl)(methyl)amino)-2-oxoethyl)-1H-benzo[d]imidazol-2-yl)ethyl)-N-methylbenzamide] |
| 20 | CN(C(=O)Cn1c(CCNC(=O)c2ccccc2)nc2ccccc21)c1ccc2c(c1)CCC2 [Compound 31, N-(2-(1-(2-((2,3-dihydro-1H-inden-5-yl)(methyl)amino)-2-oxoethyl)-1H-benzo[d]imidazol-2-yl)ethyl)benzamide] |
| 0.2 ± 0.01 | CN(CCc1nc2ccccc2n1CC(=O)Nc1ccc2ccccc2c1)C(=O)c1ccccc1 [Compound 32, N-methyl-N-(2-(1-(2-(naphthalen-2-ylamino)-2-oxoethyl)-1H-benzo[d]imidazol-2-yl)ethyl)benzamide] |
| 0.3 ± 0.01 | CC(C)c1cccc(NC(=O)Cn2c(CCN(C)C(=O)c3ccccc3)nc3ccccc32)c1 [Compound 33, N-(2-(1-(2-((3-isopropylphenyl)amino)-2-oxoethyl)-1H-benzo[d]imidazol-2-yl)ethyl)-N-methylbenzamide] |
| 0.6 ± 0.1 | CN(CCc1nc2ccccc2n1CC(=O)Nc1ccc2sccc2c1)C(=O)c1ccccc1 [Compound 34, N-(2-(1-(2-(benzo[b]thiophen-5-ylamino)-2-oxoethyl)-1H-benzo[d]imidazol-2-yl)ethyl)-N-methylbenzamide] |
| 0.9 ± 0.2 | CN(CCc1nc2ccccc2n1CC(=O)Nc1ccc(Cl)c(Cl)c1)C(=O)c1ccccc1 [Compound 35, N-(2-(1-(2-((3,4-dichlorophenyl)amino)-2-oxoethyl)-1H-benzo[d]imidazol-2-yl)ethyl)-N-methylbenzamide] |
| 1.3 | CN(CCc1nc2ccccc2n1CC(=O)Nc1ccc2occc2c1)C(=O)c1ccccc1 [Compound 36, N-(2-(1-(2-(benzofuran-5-ylamino)-2-oxoethyl)-1H-benzo[d]imidazol-2-yl)ethyl)-N-methylbenzamide] |
| 1.6 ± 0.1 | Cc1ccc(NC(=O)Cn2c(CCN(C)C(=O)c3ccccc3)nc3ccccc32)cc1C [Compound 37, N-(2-(1-(2-((3,4-dimethylphenyl)amino)-2-oxoethyl)-1H-benzo[d]imidazol-2-yl)ethyl)-N-methylbenzamide] |

The compounds below were run on HCT116 cells (assay: Uptake of MDP-rhodamine by HCT116 cells (fluorescence microscopy)). Details: GSK669 up to 20 μM, chlorpromazine 20 μM, 1–4 hour.
Format: cell-based, human
Method: HCT116 cells seeded onto glass cover-slips at low density were pre-treated with GSK669 or the endocytosis inhibitor chlorpromazine for 30 minutes before addition of 2.5 μg/mL MDP-rhodamine. Live cells were viewed periodically over 6-hours incubation at 37 °C using a Nikon eclipse TE2000-E fluorescent inverted microscope fitted with a CCTV camera and rhodamine filter.

| Compound | effect on uptake of Rhodamine-MDP into cells |
| --- | --- |
| CN(C)CCCN1c2ccccc2Sc2ccc(Cl)cc21 [chlorpromazine, reference compound] | intracellular punctate fluorescence did not develop |
